One compound from patent EP0312076A1, “Use of oxoquinazoline derivatives in the treatment of hyperlipidemia” (BOEHRINGER INGELHEIM KG, priority 1987, dated 1989) can be followed below.

Data set [1] relates to Gesamtcholesterin. Kind of data set: Study in 8 healthy volunteers on a defined purine-rich diet: total cholesterol. To be noted: nach 8 Tagen (nach Therapieende), 600 mg/Tag from day 4, n = 8, before therapy (4 days) 196 ± 70 mg/dl, before diet 201 ± 48 mg/dl. It is filed as in vivo, gesunde Probanden. As for the experimental part: In einer anderen Studie erhielten 8 gesunde Probanden eine definierte purinreiche Diät über die Prüfdauer von 8 Tagen. Nach 4 Tagen wurde mit der Verabreichung von 11-Oxo-11-H-pyrido[2,1-b]-chinazolin-2-carbonsäure (600 mg/Tag) begonnen.
Gesamtcholesterin (x); n = 8
Das Ergebnis bedeutet eine l8prozentige Senkung des Gesamtcholesterins.

The subject of data set [2] is Gesamtcholesterinspiegel. Kind of data set: Lowering of total cholesterol level in humans. It is filed as in vivo. To be noted: 600 mg pro Tag, beim Menschen. As for the experimental part:
Mit 600 mg pro Tag ließ sich z.B. bei Verwendung der 11-Oxo-11-H-pyrido[2,1-b]chinazolin-2-carbonsäure beim Menschen der Gesamtcholesterinspiegel um etwa 25 % senken.

Data set [3] has as its system Harnsäurespiegel. Nature of the data set: Rat test: lowering of uric acid level. It is filed as in vivo. As to conditions: 100 mg/kg pro Tag (in zwei gleichen Gaben), Ratten. The procedure: (§1) Im Versuch an Ratten wurde mit 100 mg/kg pro Tag (in zwei gleichen Gaben) eine deutliche Senkung des Triglyceridspiegels erreicht, z.B. 34% Senkung gegenüber der Kontrolle bei normolipämischen Ratten. Vorteilhafterweise wurde gleichzeitig der Harnsäurespiegel um 38 % gesenkt. Es läßt sich daher mit einer Substanz eine Therapie der Hyperlipidämie und der Hyperurikämie durchführen. Dadurch können unerwünschte Wechselwirkungen, wie sie bei der sonst nötigen Behandlung mit je einem Wirkstoff gegen die Hyperurikämie und gegen die Hyperlipidämie auftreten können, von vornherein vermieden werden.

The subject of data set [4] is Triglyceridspiegel. Nature of the data set: Rat test: lowering of triglyceride level. It is filed as in vivo. As to conditions: 100 mg/kg pro Tag (in zwei gleichen Gaben), normolipämische Ratten. As for the experimental part:
as §1

Details of data set [5]: species or system Patienten. To be noted: in vivo. The text has this:
Gegenüber den bekannten Mitteln zur Behandlung der Hyperlipidämie haben die erfindungsgemäß verwendbaren Verbindungen, etwa die 11-Oxo-11-H pyrido-[2,1-b]-chinazolin-2-carbonsäure und ihre Salze, den Vorzug besserer Verträglichkeit.

As for `O=C(O)c1ccc2nc3ccccn3c(=O)c2c1` [11-Oxo-11-H-pyrido[2,1-b]chinazolin-2-carbonsäure], the “Gesamtcholesterin (x)” value in data set [1] is 160 ± 48 mg/dL. Moreover, the “Senkung des Gesamtcholesterinspiegels” value in data set [2] is roughly 25%. For the same compound, the “Senkung des Harnsäurespiegels” value in data set [3] was 38%. For the same compound, the “Senkung des Triglyceridspiegels gegenüber der Kontrolle” value in data set [4] was found to be 34%. Besides, in data set [5], the “präparatespezifische Nebenwirkungen” value is on record as “keinerlei präparatespezifischen Nebenwirkungen”.
